Measured values as given in US20050245472A1, “Engineered rnai adenovirus silencing expression (erase) of dna reair proteins” (The Johns Hopkins University, priority 2003, published 2005).

Test system: DU 145 cells
Test: Clonogenic survival after ionizing radiation
Format: cell-based, human
Details: DU 145, 10 μM, one hour before and 24 hours after irradiation, vs DMSO

SMILES | DRF, ionizing radiation (DRF at 80% clonogenic cell killing) | DRF, ionizing radiation
O=c1cc(N2CCOCC2)oc2c(-c3ccccc3)cccc12 [LY294002] | 1.1 | 
COC[C@H]1OC(=O)c2coc3c2[C@@]1(C)C1=C(C3=O)[C@@H]2CCC(=O)[C@@]2(C)C[C@H]1OC(C)=O [Wortmannin] |  | 1.4
